What was measured:
[1] = tested on: ethanol induced corneal injury mouse model; assay: Visual and lysamine green staining observation of corneal epithelium surface; format: in vivo; details: 5 mg/ml and 10 mg/ml in the eye twice a day for a week; compared with control (PBS); FIG. 3
Method: (§1) Particularly, in order to construct a corneal injury mouse model using ethanol, a filter paper of 6 mm in diameter soaked in 100% ethanol was applied onto the cornea of the right eye of a female BALB/c mouse at 10 weeks of age for 30 seconds, followed by irrigation with PBS (phosphate-buffered saline) for 1 minute. In order to observe the defects of the corneal epithelium surface easily, the lysamine green reagent, which selectively stains the epithelium defect area, was treated on the surface of the damaged corneal epithelium and washed with physiological saline.
The 8-oxo-2′-deoxyguanosine compound prepared at the concentrations of 5 mg/ml and 10 mg/ml and the control PBS (phosphate-buffered saline) were applied into the eye of the ethanol induced corneal injury mouse model constructed in Example 1, respectively twice a day for a week, followed by observation with the naked eye and photographs (n=15 in each group).

[2] = tested on: ethanol induced corneal injury mouse model; assay: Clinical index scoring of corneal epithelium damage recovery; format: in vivo
Method: as §1
8-oxo-dG was applied into the eye of the ethanol induced corneal injury mouse model for a week and then the recovery of the corneal epithelium damage was investigated. Particularly, the ethanol induced corneal injury mouse model examined in Experimental Example 1 was injected with Zoletil intramuscularly in order to anesthetize the mouse, followed by lysamine green staining on the cornea. Then, epithelial integrity and clarity of the corneal epithelium and corneal neovascularization were investigated and the results proceeded to clinical grading and scoring by items.
The corneal clarity was also evaluated and scored step by step. The indexes of the evaluation are as follows (Fantes et al, Arch Ophthalmol 1990).
In addition, in order to evaluate and score the degree of corneal neovascularization, the cornea was divided into quadrants as shown in FIG. 1. Based on the limbus between the cornea and the sclera, 0.5 points were assigned to each part of the newly formed vessels in the inside, followed by indexing and scoring (total 12 scores) (Li et al, Molecular Vision 2010).
During the application of 8-oxo-dG into the eye for a week, corneal staining was performed for a week to graphically identify the recovery of the corneal epithelial defects on daily basis.

[3] = tested on: ethanol induced corneal injury mouse model; assay: Histological observation (H&E) of corneal tissue; format: in vivo; details: 5 mg/ml or 10 mg/ml in the eye twice a day for a week; n=2; FIGS. 5a, 5b
Method: as §1
The ethanol induced corneal injury mouse model constructed in Example 1 was administered with 8-oxo-dG in the eye at the concentration of 5 mg/ml or 10 mg/ml and the control PBS (phosphate-buffered saline), twice a day for a week. The corneal tissues were extracted and fixed in 10% paraformaldehyde, followed by washing with PBS. The tissues were embedded in paraffin and the paraffin block was stained with H&E (haematoxylin and eosin), followed by direct observation under the microscope. The stromal thickness was measured by using Image J software.

[4] = tested on: neutrophils, macrophages and T cells; assay: Immunohistochemical staining of inflammatory cells in corneal tissue; format: in vivo, mouse; details: 5 mg/ml or 10 mg/ml in the eye twice a day for a week, compared with control
Method: as §1
Particularly, the ethanol induced corneal injury mouse model constructed in Example 1 was administered with 8-oxo-dG in the eye at the concentration of 5 mg/ml or 10 mg/ml and the control PBS (phosphate-buffered saline), twice a day for a week. The corneal tissues were extracted and fixed in 10% paraformaldehyde, followed by washing with PBS. The tissues were treated with anti-neutrophil elastase, anti CD3 and anti F4/80 antibodies (Abcam, Cambridge, UK), the markers of neutrophils, T lymphocytes and macrophages. After washing with PBS, the secondary antibody (REAL™ EnVision™ detection system, Dako) was applied thereto. […] The immunostained cells in each section were counted by hand by two skilled examiners and the numbers were averaged.

IL-1β = assay: Inflammatory cytokine mRNA expression in corneal tissue by real time PCR; format: in vivo, mouse; details: 10 mg/ml in the eye twice a day for a week; compared with control; FIG. 7b
Method: as §1
(§2) Particularly, the ethanol induced corneal injury mouse model constructed in Example 1 was administered with 8-oxo-dG in the eye at the concentration of 5 mg/ml or 10 mg/ml and the control PBS (phosphate-buffered saline), twice a day for a week. The corneal tissue was extracted and homogenized with a sonicator (Ultrasonic Processor, Cole Parmer Instruments, Vernon Hills, Ill., USA). Then, corneal RNA was extracted by using RNeasy Mini kit (Qiagen, Valencia, Calif., USA). CDNA was synthesized with the same amount of RNA of each corneal sample and real-time PCR (ABI 7500 Real Time PCR System, Applied Biosystems, Carlsbad, Calif., USA) was performed. Taqman Gene Expression Assays were used for real-time PCR. The detailed inflammatory cytokines were as follows. […]

IL-6 = assay: as above; format: in vivo, mouse; details: 5 mg/ml or 10 mg/ml in the eye twice a day for a week; three groups incl. PBS; FIG. 7c
Method: as §1, §2

TNF-α = assay: as above; format: in vivo, mouse; details: 5 mg/ml or 10 mg/ml in the eye twice a day for a week; compared with control; FIG. 7a
Rac protein = details: exogenous 8-oxo-dG; previous experiments with animal models; cited from earlier work

Nc1nc2c([nH]c(=O)n2[C@H]2CC(O)[C@@H](CO)O2)c(=O)[nH]1 (some centres unmarked) [8-oxo-dG, 8-oxo-2′-deoxyguanosine]
corneal epithelium surface damage, lysamine green staining (after staining) [1]: reduced significantly by the treatment of 8-oxo-dG dose-dependently | corneal epithelium surface damage, naked eye (before staining) [1]: reduced by the treatment of 8-oxo-dG dose-dependently | neovascularization scoring index ([2]; 5 mg/ml or 10 mg/ml in the eye twice a day for a week, FIG. 4c): reduced in the group treated with 8-oxo-dG to some degree | epithelial integrity index score (defect of the corneal epithelium surface) ([2]; 5 mg/ml or 10 mg/ml in the eye twice a day for a week, compared with PBS, FIG. 4a): reduced in the group treated with 8-oxo-dG dose-dependently | corneal clarity scoring index ([2]; 5 mg/ml or 10 mg/ml in the eye twice a day for a week, lower index = improved clarity, FIG. 4b): reduced in the group treated with 8-oxo-dG dose-dependently | daily recovery of corneal epithelial defects (corneal staining index score) ([2]; 5 mg/ml or 10 mg/ml in the eye, daily corneal staining for a week, FIG. 4d): significantly reduced in the group treated with 8-oxo-dG dose-dependently | corneal epithelium tissue condition/thickness (H&E) [3]: restored to the normal level | number of cells stained with anti-neutrophil elastase (neutrophils) ([4]; FIG. 6a): reduced significantly | number of cells stained with anti F4/80 (macrophages) ([4]; FIG. 6b): reduced significantly | number of cells stained with anti CD3 (T cells) ([4]; FIG. 6c): not much different | expression of IL-1β mRNA (IL-1β): significantly reduced | expression of IL-6 mRNA (IL-6): not much different | expression of TNF-α mRNA (TNF-α): not significantly but slightly reduced | effect on Rac protein (GTPase) (Rac protein): inactivated Rac protein

From patent US10675294B2, “Pharmaceutical composition containing 8 OXO-deoxyguanosine or pharmaceutically acceptable salt thereof as active ingredient for treating corneal disease” (GACHON UNIVERSITY OF INDUSTRY-ACADEMIC COOPERATION …, priority 2016, dated 2020)
